Assay results taken from patent publication US5935829A, “Mutation assays involving blood cells that metabolize toxic substances” (priority 1992, dated 1999).
Where two headings read alike, the source gives them in different places.

Experiments:
[1] = system: AHH activity of AHH-1 cells; type: cell-based, human
Description: (§1) The quantity of 3-hydroxy BaP was measured by fluorescent intensity activated by a light wavelength of 396 nm and measured at 522 nm using a spectrofluorimeter (Farrand Model Mk-1, Valhalla, N.Y.).
After growth of the cells in culture medium with gentamycin and kanamycin, the cells were plated in microtiter plates at a density of about 0.2 cells per well. Colonies were isolated and characterized for BaP-induced growth inhibition. A total of 47 colonies were isolated and contacted with 40 uM BaP. In its normal state, BaP is not highly cytotoxic or mutagenic; however, if metabolized by oxidative activity into one or more epoxides or phenols, the metabolites tend to be toxic and mutagenic.
6-TG resistant clones were characterized for AHH activity by measuring the rate of production of 3-OH benzopyrene, a fluorescent metabolite of BaP which is created by AHH activity.

in vitro [2] = type: cell-based, human; conditions: human, g6-a5 cells, G6-A5 clone, read-out: Relative Survival
Source text: (§2) Following the benzo(ghi)perylene selection and after plating in microtitre plates, colonies were isolated and analyzed for MFO activity and PE. […] Several of these subclones were used to detect the mutagenic activity of benzo(a)pyrene, a chemical known to require oxidative metabolism for mutagenicity.

G6-A5 cells = assay: in vitro; type: cell-based, human; conditions: several subclones, exposed directly
Source text: as §2

[3] = system: AHH activity of 6-TG resistant AHH-1 clones; assay: AHH activity induced by BaP in AHH-1 cells resistant to 6-TG; type: cell-based, human; conditions: 10 μM BaP, 24 hours
Description: as §1, with “3-hydroxy BaP per 10^6 cells per minute. The” for “The”, “N.Y.). This could be induced to about 0.3 pmole of 3-hydroxy BaP per 10^6 cells per minute.” for “N.Y.).”
6-TG resistant clones were characterized for AHH activity by measuring the rate of production of 3-OH benzopyrene, a fluorescent metabolite of BaP which is created by AHH activity. […].

in vitro [4] = conditions: human, ahh-1 cells, RELATIVE SURVIVAL; for viability at 48 h, 10 µM: 10 μM × 48 hours; for viability at 48 h, 20 µM: 20 μM × 48 hours
human cells = conditions: literature ref. 15; cited from earlier work
[5] = 0.3 μM × 24 hours, induction BP

c1ccc2c(c1)cc1ccc3cccc4ccc2c1c34 [BaP, benzo(a)pyrene]
AHH Activity Induced by B(α)P [1]: 2.04 pmole 3OHBP/10^6 cells/minute
induction of AHH activity [1]: inducers
viability at 24 h (in vitro [2]; 0.1 μg/ml): 37%
viability at 24 h (in vitro [2]; 0.2 μg/ml, 24 hour treatment): 41%
mutation of G6-series subclones to a statistically significant degree (G6-A5 cells): mutated to a statistically significant degree
AHH Activity Induced by B(α)P ([3]; clone BP-1): 1.64 pmole 3OHBP/10^6 cells/minute
AHH Activity Induced by B(α)P ([3]; clone BP-2): 2.36 pmole 3OHBP/10^6 cells/minute
AHH Activity Induced by B(α)P ([3]; clone BP-3): 1.88 pmole 3OHBP/10^6 cells/minute
AHH Activity Induced by B(α)P ([3]; clone BP-4): 2.76 pmole 3OHBP/10^6 cells/minute
AHH Activity Induced by B(α)P ([3]; clone BP-5): 0.72 pmole 3OHBP/10^6 cells/minute
AHH Activity Induced by B(α)P ([3]; clone BP-6): 1.88 pmole 3OHBP/10^6 cells/minute
AHH Activity Induced by B(α)P ([3]; clone BP-7): 1.84 pmole 3OHBP/10^6 cells/minute
AHH Activity Induced by B(α)P ([3]; mean TG^R clones): 1.87 pmole 3OHBP/10^6 cells/minute
MUTANT FRACTION × 10^6, MEAN ± STD.DEV. (AHH-1 cells; [5]): 3.4 ± 0.5 × 10^6
MUTANT FRACTION × 10^6, MEAN ± STD.DEV. (AHH-1 cells; 1 μM × 24 hours, induction BP): 4.9 ± 0.9 × 10^6
MUTANT FRACTION × 10^6, MEAN ± STD.DEV. (AHH-1 cells; 3 μM × 24 hours, induction BP): 6.1 ± 1 × 10^6
MUTANT FRACTION × 10^6, MEAN ± STD.DEV. (AHH-1 cells; 10 μM × 24 hours, induction BP): 12.7 ± 1.5 × 10^6
MUTANT FRACTION × 10^6, MEAN ± STD.DEV. (AHH-1 cells; 30 μM × 24 hours, induction BP): 18.2 ± 2.1 × 10^6
viability at 24 h, 0.3 µM (in vitro [4]; [5]): 87%
viability at 24 h, 1 µM (in vitro [4]; 1 μM × 24 hours, induction BP): 102%
viability at 24 h, 3 µM (in vitro [4]; 3 μM × 24 hours, induction BP): 74%
viability at 24 h, 10 µM (in vitro [4]; 10 μM × 24 hours, induction BP): 82%
viability at 24 h, 30 µM (in vitro [4]; 30 μM × 24 hours, induction BP): 75%

c1cc2cccc3c4cccc5cccc(c(c1)c23)c54 [Per, perylene]
MUTANT FRACTION × 10^6, MEAN ± STD.DEV. (AHH-1 cells; 10 μM × 48 hours, induction BNF): 2.7 ± 0.6 × 10^6
MUTANT FRACTION × 10^6, MEAN ± STD.DEV. (AHH-1 cells; 10 μM × 48 hours, induction none): 3.2 ± 0.75 × 10^6
MUTANT FRACTION × 10^6, MEAN ± STD.DEV. (AHH-1 cells; 20 μM × 48 hours, induction BNF): 2.7 ± 0.6 × 10^6
MUTANT FRACTION × 10^6, MEAN ± STD.DEV. (AHH-1 cells; 20 μM × 48 hours, induction none): 1.9 ± 0.5 × 10^6
viability at 48 h, 10 µM (in vitro [4]; induction BNF): 89%
viability at 48 h, 10 µM (in vitro [4]; induction none): 93%
viability at 48 h, 20 µM (in vitro [4]; induction BNF): 89%
viability at 48 h, 20 µM (in vitro [4]; induction none): 95%
mutagenicity for human cells (human cells): not a mutagen for human cells
